Source: patent publication US9650389B2, “8-oxoprotoberberine derivative or pharmaceutically acceptable salt thereof, preparation method therefor and pharmaceutical composition for preventing or treating diseases associated with activity of NFAT5, containing same as active ingredient” (Korea Research Institute of Chemical Technology, priority 2013, dated 2017)
Like-named read-outs stand apart in the source and are kept apart here.

What was measured:
[1] = target: T1, COX1 (Ovis aries, UniProt P05979); experiment: COX inhibition, COX assay kit (Table 4); type: biochemical
T1 construct: purchased Cayman Co. 760111
T1 sequence (P05979 25-600): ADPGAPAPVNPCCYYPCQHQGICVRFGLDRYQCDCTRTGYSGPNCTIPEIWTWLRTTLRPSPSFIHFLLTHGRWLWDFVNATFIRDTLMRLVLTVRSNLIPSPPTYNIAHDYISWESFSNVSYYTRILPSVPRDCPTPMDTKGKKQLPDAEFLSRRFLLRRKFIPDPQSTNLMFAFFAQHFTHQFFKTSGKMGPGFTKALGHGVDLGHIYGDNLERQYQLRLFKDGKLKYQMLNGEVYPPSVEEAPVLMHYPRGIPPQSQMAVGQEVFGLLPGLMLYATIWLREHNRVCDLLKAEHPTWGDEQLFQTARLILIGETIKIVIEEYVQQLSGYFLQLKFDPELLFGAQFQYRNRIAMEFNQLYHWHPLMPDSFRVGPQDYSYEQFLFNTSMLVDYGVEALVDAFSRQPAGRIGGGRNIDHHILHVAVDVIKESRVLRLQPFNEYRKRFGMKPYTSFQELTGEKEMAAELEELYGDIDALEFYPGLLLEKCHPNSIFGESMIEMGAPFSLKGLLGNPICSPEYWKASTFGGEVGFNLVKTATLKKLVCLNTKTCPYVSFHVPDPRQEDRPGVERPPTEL
Description: (§1) 10 μl of substrate and 10 μl of arachidonic acid were added thereto, followed by reaction for 10 minutes in the darkness. Then, OD590 was measured.

[2] = target: T2, COX2 (Ovis aries, UniProt P79208); experiment: COX inhibition, COX assay kit (Table 5); type: biochemical
T2 construct: purchased Cayman Co. 760111
T2 sequence (P79208 17-603): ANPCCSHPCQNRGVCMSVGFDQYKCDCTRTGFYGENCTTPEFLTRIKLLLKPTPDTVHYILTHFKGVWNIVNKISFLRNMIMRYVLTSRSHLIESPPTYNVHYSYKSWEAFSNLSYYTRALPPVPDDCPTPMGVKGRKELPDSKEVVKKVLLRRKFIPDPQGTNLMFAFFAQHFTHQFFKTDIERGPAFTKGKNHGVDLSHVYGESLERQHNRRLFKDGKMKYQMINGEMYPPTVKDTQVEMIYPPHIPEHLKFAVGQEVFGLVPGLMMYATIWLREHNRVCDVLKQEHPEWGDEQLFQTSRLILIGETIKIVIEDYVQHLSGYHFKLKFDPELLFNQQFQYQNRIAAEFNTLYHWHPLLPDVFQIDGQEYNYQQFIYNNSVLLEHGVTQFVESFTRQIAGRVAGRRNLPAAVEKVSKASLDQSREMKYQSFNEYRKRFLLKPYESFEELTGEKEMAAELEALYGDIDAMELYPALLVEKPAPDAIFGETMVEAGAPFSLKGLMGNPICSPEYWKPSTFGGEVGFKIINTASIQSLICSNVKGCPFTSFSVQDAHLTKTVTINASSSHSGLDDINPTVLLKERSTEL
Description: as §1

[3] = system: iNOS; experiment: Inhibition of LPS-induced iNOS induction in Raw264.7 cells (Griess reagent); type: cell-based; conditions: Mus musculus, read-out: Inhibition rate of iNOS induction (%)
Description: To investigate whether or not the derivative of the present invention could inhibit iNOS inducement, Raw264.7 cells (mouse macrophages) were distributed in a 384-well plate at the density of 3×10^4 cells/well. The cells were treated with LPS at the concentration of 100 ng/ml, followed by culture at 37° C. for 24 hours. The concentration of […] increased in the medium was measured by using Griess reagent. The inhibition rate was calculated by mathematical formula based on the detected signals. The results are shown in Table 2. % inhibition=(mean value of sample−mean value of negative control)/(mean value of positive control −mean value of negative control)×100 [Mathematical Formula 1]

[4] = target: T3, NFAT5 (Mus musculus, UniProt Q9WV30); experiment: NFAT5 reporter screening (GFP, HCS) in LPS-treated Raw264.7 cells; type: cell-based; conditions: for Inhibition rate of NFAT5 transcription (%): Raw264.7 reporter, LPS 1 μg/ml, 48 hours; for inhibiting NFAT5 activity (in words): Table 3 and FIG. 1
T3 construct: endogenous in cells; host or cells: RAW264.7
T3 sequence (Q9WV30 whole entry): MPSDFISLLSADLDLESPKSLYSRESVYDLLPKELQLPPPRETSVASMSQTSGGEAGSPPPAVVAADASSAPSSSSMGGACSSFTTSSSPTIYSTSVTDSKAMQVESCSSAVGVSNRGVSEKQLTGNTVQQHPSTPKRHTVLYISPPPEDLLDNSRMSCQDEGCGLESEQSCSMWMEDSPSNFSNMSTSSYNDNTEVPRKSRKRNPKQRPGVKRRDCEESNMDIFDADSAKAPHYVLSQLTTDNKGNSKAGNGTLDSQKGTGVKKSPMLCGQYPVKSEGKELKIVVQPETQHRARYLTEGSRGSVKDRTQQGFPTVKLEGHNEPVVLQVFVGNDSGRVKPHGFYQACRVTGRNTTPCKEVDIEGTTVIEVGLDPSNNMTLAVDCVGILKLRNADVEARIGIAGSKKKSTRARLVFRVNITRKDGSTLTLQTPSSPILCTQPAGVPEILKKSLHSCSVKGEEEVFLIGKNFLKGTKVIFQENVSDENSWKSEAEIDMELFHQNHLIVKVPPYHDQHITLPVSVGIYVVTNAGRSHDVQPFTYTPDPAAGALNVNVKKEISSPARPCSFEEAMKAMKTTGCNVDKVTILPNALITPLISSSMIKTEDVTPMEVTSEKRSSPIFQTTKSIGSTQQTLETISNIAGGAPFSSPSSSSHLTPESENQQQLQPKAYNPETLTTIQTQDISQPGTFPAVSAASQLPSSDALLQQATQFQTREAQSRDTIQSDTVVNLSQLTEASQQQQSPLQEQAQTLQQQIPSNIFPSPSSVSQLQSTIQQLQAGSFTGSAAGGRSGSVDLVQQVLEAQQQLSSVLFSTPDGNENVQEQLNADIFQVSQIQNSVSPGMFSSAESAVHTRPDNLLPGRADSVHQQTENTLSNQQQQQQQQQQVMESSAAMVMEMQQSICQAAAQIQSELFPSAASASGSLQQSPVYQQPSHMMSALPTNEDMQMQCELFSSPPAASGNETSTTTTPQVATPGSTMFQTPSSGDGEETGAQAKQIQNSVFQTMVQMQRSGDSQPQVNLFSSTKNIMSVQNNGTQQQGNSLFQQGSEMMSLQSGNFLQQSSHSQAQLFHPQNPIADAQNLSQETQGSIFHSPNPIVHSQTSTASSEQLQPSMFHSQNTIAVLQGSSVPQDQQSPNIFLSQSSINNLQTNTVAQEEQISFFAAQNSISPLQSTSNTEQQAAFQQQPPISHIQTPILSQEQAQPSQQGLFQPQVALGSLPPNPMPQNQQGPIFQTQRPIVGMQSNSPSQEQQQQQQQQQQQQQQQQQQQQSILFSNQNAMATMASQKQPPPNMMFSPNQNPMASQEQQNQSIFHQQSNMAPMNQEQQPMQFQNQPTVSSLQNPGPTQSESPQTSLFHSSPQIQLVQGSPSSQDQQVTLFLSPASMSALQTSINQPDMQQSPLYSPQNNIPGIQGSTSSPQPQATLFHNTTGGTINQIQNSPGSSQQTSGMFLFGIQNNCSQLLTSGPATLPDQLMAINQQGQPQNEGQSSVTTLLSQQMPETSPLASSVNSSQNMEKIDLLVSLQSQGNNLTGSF
Description: To investigate whether or not the derivative of the present invention could inhibit the transcriptional activity of NFAT5, NFAT5 reporter screening was performed. A plasmid vector was constructed by eliminating CMV promoter sequence from the backbone and inserting NFAT5 binding site sequence ([…]) instead. Raw264.7 cells transfected with the vector were cultured in 10% FBS-PRMI (supplemented with 500 μg/ml G418). The cells were distributed in a 96-well plate at the density of 3×10^3 cells/well, followed by further culture for one more day. The cells were treated with LPS at the concentration of 1 μg/ml for 48 hours. Then, the cells were fixed and the expression level of GFP was measured by HCS fluorescence image (Thermo, ArrayScan^VTI).

[5] = Cytotoxicity test (WST-8), VERO; type: cell-based; conditions: African green monkey, VERO kidney cells
Description: (§2) To investigate the cytotoxicity of the derivative of the present invention, 5 kinds of cell lines (VERO: African green monkey kidney cell line, HFL-1: human embryonic lung cell line, L929: NCTC clone 929, mouse fibroblast cell line, NIH 3T3: mouse embryonic fibroblast cell line, and CHO-K1: Chinese hamster ovary cell line) were distributed in a 96-well plate at the density of 1×10^4 cells/well, which were treated with the compound of the present invention for 24 hours. The water-soluble tetrazolium salt WST-8 was added thereto. The orange colored formazan dye degraded by dehydrogenase in the live cells was read, followed by nonlinear regression to determine 50% growth inhibition concentration.

[6] = Cytotoxicity test (WST-8), L929; type: cell-based; conditions: mouse, L929 fibroblast cells (NCTC clone 929); L929, 24 hours
Description: as §2

[7] = Cytotoxicity test (WST-8), HFL-1; type: cell-based; conditions: human, HFL-1 embryonic lung cells; HFL-1, 24 hours
Description: as §2

[8] = Cytotoxicity test (WST-8), NIH 3T3; type: cell-based; conditions: mouse, NIH 3T3 embryonic fibroblast cells; NIN3T3, 24 hours
Description: as §2

[9] = Cytotoxicity test (WST-8), CHO-K1; type: cell-based; conditions: Chinese hamster, CHO-K1 ovary cells; CHO-K1, 24 hours
Description: as §2

[10] = Conc. 0.16 μM, two values per substance
[11] = Conc. 0.16 μM, two values per substance, read-out: inhibition rate
[12] = Conc. 0.8 μM, two values per substance
[13] = Conc. 0.8 μM, two values per substance, read-out: inhibition rate
[14] = Conc. 4 μM, two values per substance
[15] = Conc. 4 μM, two values per substance, read-out: inhibition rate
[16] = Conc. 20 μM, two values per substance
[17] = Conc. 20 μM, two values per substance, read-out: inhibition rate
[18] = Conc. 100 μM, two values per substance
[19] = Conc. 100 μM, two values per substance, read-out: inhibition rate
[20] = 1 μM, Raw264.7, LPS 100 ng/ml, 24 hours
[21] = 10 μM, Raw264.7, LPS 100 ng/ml, 24 hours

## COc1ccc2cc3[n+](cc2c1OC)CCc1cc2c(cc1-3)OCO2 [Berberine]
[1]; [10]
  inhibition rate: 5.4
[1]; [11]
  inhibition at 0.16 µM: 3.3%
[1]; [12]
  inhibition rate: 13.4
[1]; [13]
  inhibition at 0.8 µM: 12.4%
[1]; [14]
  inhibition rate: 20.4
[1]; [15]
  inhibition at 4 µM: 18.4%
[1]; [16]
  inhibition rate: 31.4
[1]; [17]
  inhibition at 20 µM: 24.4%
[1]; [18]
  inhibition rate: 51.5
[1]; [19]
  inhibition at 100 µM: 53.5%
[1]; Table 4
  IC50: 96.3 µM
[2]; Conc. 0.032 μM, two values per substance, read-out: inhibition rate
  inhibition at 0.032 µM: 0%
[2]; [10]
  inhibition rate: 7.9
[2]; [11]
  inhibition at 0.16 µM: 8.8%
[2]; [12]
  inhibition rate: 19.8
[2]; [13]
  inhibition at 0.8 µM: 17.2%
[2]; [14]
  inhibition rate: 29.9
[2]; [15]
  inhibition at 4 µM: 28.2%
[2]; [16]
  inhibition rate: 39.3
[2]; [17]
  inhibition at 20 µM: 41%
[2]; [18]
  inhibition rate: 53.7
[2]; [19]
  inhibition at 100 µM: 50.3%
[2]; Table 5
  IC50: 58.4 µM

## COc1ccc2c(Cc3ccc(F)cc3F)c3n(c(=O)c2c1OC)CCc1cc2c(cc1-3)OCO2 [Example 2, 13-(2,4-difluorobenzyl)-9,10-dimethoxy-5H-[1,3]dioxolo[4,5-g]isoquinolino[3,2-a]isoquinoline-8(6H)-one]
[3]; [20]
  inhibition at 1 µM: 56.8%
[3]; [21]
  inhibition at 10 µM: 95.2%
[4]; 1 μM
  Inhibition rate of NFAT5 transcription (%): 13.6%
[4]; 10 μM
  Inhibition rate of NFAT5 transcription (%): 24.4%

## COc1ccc2c(Cc3ccccc3C)c3n(c(=O)c2c1OC)CCc1cc2c(cc1-3)OCO2 [Example 4, 9,10-dimethoxy-13-(2-methylbenzyl)-5,6-dihydro-[1,3]dioxolo[4,5-g]isoquinolino [3,2-a]isoquinoline-8(6H)-one]
[3]; [20]
  inhibition at 1 µM: 23.2%
[3]; [21]
  inhibition at 10 µM: 97.9%
[4]; 1 μM
  Inhibition rate of NFAT5 transcription (%): 7.4%
[4]; 10 μM
  Inhibition rate of NFAT5 transcription (%): 88.2%

## COc1ccccc1Cc1c2n(c(=O)c3c(OC)c(OC)ccc13)CCc1cc3c(cc1-2)OCO3 [Example 5, 9,10-dimethoxy-13-(2-methoxybenzyl)-5,6-dihydro-[1,3]dioxolo[4,5-g]isoquinolino [3,2-a]isoquinoline-8(6H)-one]
[3]; [20]
  inhibition at 1 µM: 29%
[3]; [21]
  inhibition at 10 µM: 98.3%
[4]; 1 μM
  Inhibition rate of NFAT5 transcription (%): 24.2%
[4]; 10 μM
  Inhibition rate of NFAT5 transcription (%): 77.6%

## COc1ccc2c(Cc3ccccn3)c3n(c(=O)c2c1OC)CCc1cc2c(cc1-3)OCO2 [Example 6, 9,10-dimethoxy-13-(pyridine-2-ylmethyl)-5,6-dihydro-[1,3]dioxolo[4,5-g]isoquinolino [3,2-a]isoquinoline-8(6H)-one]
[3]; [20]
  inhibition at 1 µM: 7.2%
[3]; [21]
  inhibition at 10 µM: 115%
[4]; 1 μM
  Inhibition rate of NFAT5 transcription (%): 9.9%
[4]; 10 μM
  Inhibition rate of NFAT5 transcription (%): 67.9%
[4]
  inhibiting NFAT5 activity (in words): remarkably excellent in inhibiting NFAT5 activity
[5]
  GI50 at 24 h: > 100 µM
[6]
  GI50 at 24 h: > 100 µM
[7]
  GI50 at 24 h: > 100 µM
[8]
  GI50 at 24 h: > 100 µM
[9]
  GI50 at 24 h: > 100 µM

## COc1ccc2c(Cc3nc4ccccc4[nH]3)c3n(c(=O)c2c1OC)CCc1cc2c(cc1-3)OCO2 [Example 7, 13-((1H-benzo[d]imidazole-2-yl)methyl)-9,10-dimethoxy-5,6-dihydro-[1,3]dioxolo [4,5-g]isoquinolino[3,2-a]isoquinoline-8(6H)-one]
[3]; RAW264.7, 24 h
  inhibition at 1 µM: 13.4%
  inhibition at 10 µM: 100%
[4]; 1 μM
  Inhibition rate of NFAT5 transcription (%): 18.5%
[4]; 10 μM
  Inhibition rate of NFAT5 transcription (%): 28.2%

## COc1ccc2c(C(=O)c3ccccc3F)c3n(c(=O)c2c1OC)CCc1cc2c(cc1-3)OCO2 [Example 9, 13-(2-fluorobenzoyl)-9,10-dimethoxy-5H-[1,3]dioxolo[4,5-g]isoquinolino[3,2-a]isoquinoline-8(6H)-one]
[3]; [20]
  inhibition at 1 µM: 65.6%
[3]; [21]
  inhibition at 10 µM: 117%
[4]; 1 μM
  Inhibition rate of NFAT5 transcription (%): 0.5%
[4]; 10 μM
  Inhibition rate of NFAT5 transcription (%): 16.4%

## CCOC(=O)c1c2n(c(=O)c3c(OC)c(OC)ccc13)CCc1cc3c(cc1-2)OCO3 [Example 10, ethyl9,10-dimethoxy-8-oxo-6,8-dihydro-5H-[1,3]dioxolo[4,5-g]isoquinolino[3,2-a]isoquinoline-13-carboxylate]
[3]; RAW264.7, 24 h
  inhibition at 1 µM: 53.9%
  inhibition at 10 µM: 99.2%
[4]; 1 μM
  Inhibition rate of NFAT5 transcription (%): −3.8%
[4]; 10 μM
  Inhibition rate of NFAT5 transcription (%): 53.7%
[4]
  inhibiting NFAT5 activity (in words): remarkably excellent in inhibiting NFAT5 activity

## COc1ccc2c(C(=O)O)c3n(c(=O)c2c1OC)CCc1cc2c(cc1-3)OCO2 [Example 11, 9,10-dimethoxy-8-oxo-6,8-dihydro-5H-[1,3]dioxolo[4,5-g]isoquinolino[3,2-a]isoquinoline-13-carboxylic acid]
[3]; [20]
  inhibition at 1 µM: -17.2%
[3]; [21]
  inhibition at 10 µM: 118%
[4]; 1 μM
  Inhibition rate of NFAT5 transcription (%): −10.4%
[4]; 10 μM
  Inhibition rate of NFAT5 transcription (%): −12.8%

## COc1ccc2c(C(N)=O)c3n(c(=O)c2c1OC)CCc1cc2c(cc1-3)OCO2 [Example 12, 9,10-dimethoxy-8-oxo-6,8-dihydro-5H-[1,3]dioxolo[4,5-g]isoquinolino[3,2-a]isoquinoline-13-carboxamide]
[3]; [20]
  inhibition at 1 µM: 35.4%
[3]; [21]
  inhibition at 10 µM: 107%
[4]; 1 μM
  Inhibition rate of NFAT5 transcription (%): −2.9%
[4]; 10 μM
  Inhibition rate of NFAT5 transcription (%): −5.2%

## COc1ccc2c(C(=O)Nc3ccccc3F)c3n(c(=O)c2c1OC)CCc1cc2c(cc1-3)OCO2 [Example 13, N-(2-fluorophenyl)-9,10-dimethoxy-8-oxo-6,8-dihydro-5H-[1,3]dioxolo[4,5-g]isoquinolino[3,2-a]isoquinoline-13-carboxamide]
[3]; [20]
  inhibition at 1 µM: 70.8%
[3]; [21]
  inhibition at 10 µM: 106%
[4]; 1 μM
  Inhibition rate of NFAT5 transcription (%): −11.1%
[4]; 10 μM
  Inhibition rate of NFAT5 transcription (%): −29.9%
